For experiment [1], the system named is primary hepatocytes of propionic acidemia patients. Kind of experiment: Reduction of 13C-propionyl-CoA and accumulation of compound-CoA ester after 13C-isoleucine challenge (Example 1). It counts as cell-based. The note with it: Homo sapiens, Hepatocyte, 13C-labeled isoleucine, compound 0 μM to 1,000 μM. The method, then:
Primary hepatocytes are isolated from explanted livers of propionic acidemia patients and are cultured on day 1 using standard protocols (see: Chapman et al. “Recapitulation of metabolic defects in a model of propionic acidemia using patient-derived primary hepatocytes” Mol. Genet. Metab. 2016, 117(3), 355-362). Approximately 2×10^5 hepatocytes are plated into each well of a collagen-coated 48-well tissue culture plate and pre-conditioned in a custom Modified Corning culture media for Hepatocells (Corning) without low levels of branched chain amino acids for 72 hours. On day 4, hepatocytes are treated with increasing doses of compound (0, 1, 3, 10, 30, 100, 300, 1000 μM) for 30 min. After 30 min the cells are challenged with ^13C-isoleucine (3 mM). At the end of the challenge period, cells are lysed in 100 μL of […] acetonitrile (MeCN) and 0.1% trifluoroacetic acid (TFA) containing 100 μM of ethymalonyl-CoA as an internal standard. Cells are removed from the well by scraping into the lysis buffer. The collected cellular samples are then dispensed into a microfuge tube. The plate wells are washed again with lysis buffer to ensure the remaining cells are dislocated from the well. All remaining collected cells are then moved into the centrifuge tube. The cellular samples are flash frozen in liquid nitrogen and stored at −80° C. To begin processing, the frozen cellular lysates are thawed on ice and vortexed. The samples are centrifuged at 20,000 g for 10 min at 4° C. and the total volume of supernatant is transferred to a no-bind 96-well plate on ice. The samples are dried under vacuum for about 2 hours and then resuspended in 150 μL of water in each well. Total volumes of samples are filtered through a prepared Durapore filter plate into a no-bind 96-well plate. The filtered samples are stored at −80° C. for HTMS/MS analysis.

For experiment [2] the test system is unchanged. Nature of the experiment: Propionyl-CoA from various sources in PA primary hepatocytes (Examples 2, 3). It counts as cell-based, human. The settings on record: for EC50: Homo sapiens, Hepatocyte, read-out: concentration of propionyl-CoA EC50. The method, then:
Primary hepatocytes isolated from livers of propionic acidemia patients are treated with increasing doses of compound 1 (0, 1, 3, 10, 30, 100, 300, 1000 μM) for 30 min. After 30 min the cells are challenged with the different sources of P-CoA, which may include ^13C-ketoisovaleric acid (KIVA) (1 mM), […] (ILE) (3 mM), ^13C-threonine (THR) (5 mM), ^13C-methionine (MET) (5 mM), ^13C-heptanoate (100 μM), or ^13C-propionate (5 mM) for 60 minutes. At the end of the challenge period, media is removed and the cells are lysed with 70% MeCN and 0.1% TFA containing 100 μM of ethymalonyl-CoA as an internal standard and harvested. Cell lysates are processed for HTMS/MS analysis.
Primary hepatocytes isolated from livers of propionic acidemia patients are treated with increasing doses of compound 5 (0, 0.1, 0.3, 1, 3, 10, 30, 100 μM) for 30 minutes. After 30 minutes the cells are challenged with the different sources of P-CoA, which may include ^13C-KIVA (1 mM), ^13C-isoleucine (3 mM), ^13C-threonine (5 mM), ^13C-methionine (5 mM), ^13C-heptanoate (100 μM), or ^13C-propionate (5 mM) for 60 minutes. At the end of the challenge period, media is removed and the cells are lysed with 70% MeCN and 0.1% TFA containing 100 μM of ethymalonyl-CoA as an internal standard and harvested. Cell lysates are processed for HTMS/MS analysis.

Experiment [3] deals with primary hepatocytes of methylmalonic acidemia patients. Kind of experiment: Propionyl-CoA and methylmalonyl-CoA from various sources in MMA primary hepatocytes (Examples 4, 5). It counts as cell-based, human. The settings on record: for EC50: Homo sapiens, Hepatocyte. The method, then: Primary hepatocytes isolated from livers of methylmalonic acidemia patients are treated with increasing doses of compound 1 (0, 1, 3, 10, 30, 100, 300, 1000 μM) for 30 minutes. […] At the end of the challenge period, media is removed and the cells are lysed with 70% MCCN and 0.1% TFA containing 100 μM of ethymalonyl-CoA as an internal standard and harvested. Cell lysates are processed for HTMS/MS analysis.
Primary hepatocytes isolated from livers of methylmalonic acidemia patients are treated with increasing doses of compound 5 (0, 0.1, 0.3, 1, 3, 10, 30, 100 μM) for 30 min. […] At the end of the challenge period, media is removed and the cells are lysed with 70% MeCN and 0.1% TFA containing 100 μM of ethymalonyl-CoA as an internal standard and harvested. Cell lysates are processed for HTMS/MS analysis.

The test system of experiment [4] is primary hepatocytes of propionic acidemia patients. Nature of the experiment: Propionyl-carnitine (C3) in PA primary hepatocytes (Example 6). It counts as cell-based, human. The settings on record: for EC50: Homo sapiens, Hepatocyte, read-out: concentration of propionyl-carnitine EC50. The method, then: Primary hepatocytes isolated from livers of propionic acidemia patients are treated with increasing doses of compound 1 (0, 1, 3, 10, 30, 100, 300, 1000 μM) for 30 min. After 30 min the cells are challenged with ^13C-KIVA (1 mM) and ^13C-isoleucine (3 mM) for 60 minutes. At the end of the challenge period, media is removed and the cells are washed with ice cold PBS. Cells are lysed with 70% MeCN containing 4 nM of hexanoyl-carnitine as an internal standard (lysis buffer), harvested and processed for HTMS/MS analysis.

Experiment [5] shares this test system. Kind of experiment: Reduction of propionyl-CoA with compounds 8 and 9 (Example 9). The settings on record: PA hepatocytes; 13C-isoleucine (3 mM). It counts as cell-based, human. The method, then:
Primary hepatocytes isolated from livers of propionic acidemia patients are treated with increasing doses of compound 1 (0, 0.1, 0.3, 1, 3, 10, 30, 100 μM) for 30 minutes. After 30 minutes, the cells are challenged with ^13C-isoleucine (3 mM) for 60 minutes. At the end of the challenge period, media is removed and the cells are lysed with 70% MeCN and 0.1% TFA containing 100 μM of ethymalonyl-CoA as an internal standard and harvested. Cell lysates are processed for HTMS/MS analysis.

The mark [6] stands for this setting: read-out: concentration of 12C-Compound-CoA ester EC50.
Setting [7] is: read-out: concentration of 13C-propionyl-CoA EC50.

Each structure is given as a SMILES string. Read-outs that look alike come from different tables or passages of the source.

We go through 8 compounds from US20220142955A1, “METHODS OF TREATING ORGANIC ACIDEMIAS” (HemoShear Therapeutics, Inc., priority 2019, published 2022).

As to `CCCC(CCC)C(=O)O` [Compound 1, 2-propylpentanoic acid (valproic acid)], the EC50 turned out to be 12.5 µM in experiment [1] (setting [6]); 12.4 µM in experiment [1] (setting [7]); 48.2 µM in experiment [2] (100 μM 13C-heptanoate); 14.2 µM in experiment [2] (1 mM 13C-KIVA); 15 µM in experiment [2] (3 mM 13C-ILE); 7.14 µM in experiment [2] (5 mM 13C-MET). Also, the EC50 was 9.2 µM in experiment [2] (5 mM 13C-THR); 21.2 µM in experiment [2] (5 mM 13C-propionate); 89.4 µM in experiment [3] (100 μM 13C-propionate, read-out: concentration of methylmalonyl-CoA EC50); 68.2 µM in experiment [3] (100 μM 13C-propionate, read-out: concentration of propionyl-CoA EC50); 31.3 µM in experiment [3] (1 mM 13C-KIVA, read-out: concentration of methylmalonyl-CoA EC50); 30.9 µM in experiment [3] (1 mM 13C-KIVA, read-out: concentration of propionyl-CoA EC50). Moreover, the EC50 in experiment [3] (3 mM 13C-ILE, read-out: concentration of methylmalonyl-CoA EC50) was 25.5 µM; in experiment [3] (3 mM 13C-ILE, read-out: concentration of propionyl-CoA EC50), 30.8 µM; in experiment [3] (5 mM 13C-MET, read-out: concentration of methylmalonyl-CoA EC50), 47.3 µM; in experiment [3] (5 mM 13C-MET, read-out: concentration of propionyl-CoA EC50) it was 50.7 µM; in experiment [3] (5 mM 13C-THR, read-out: concentration of methylmalonyl-CoA EC50) it was 25.6 µM; in experiment [3] (5 mM 13C-THR, read-out: concentration of propionyl-CoA EC50), 13.9 µM. For the same compound, the EC50 was found to be 44.3 µM in experiment [4] (1 mM 13C-KIVA) and 54.3 µM in experiment [4] (3 mM 13C-ILE). The “intracellular propionyl-CoA from all sources investigated” value in experiment [2] is “dose-dependent reduction”. For the same compound, the “intracellular propionyl-CoA and methylmalonyl-CoA from all sources investigated” value in experiment [3] is on record as “dose-dependent reduction”. The “intracellular propionyl-carnitine (C3) from 13C-KIVA or 13C-isoleucine” value in experiment [4] is “dose-dependent reduction”.
`CCCC(CC)C(=O)O` (centres unmarked) [Compound 2, 2-ethylpentanoic acid]: the values for the EC50 in experiment [1] (setting [6]) and in experiment [1] (setting [7]) were 1.24 µM and 1.23 µM, respectively.
Consider `CCCC(C)C(=O)O` (centres unmarked) [Compound 3, 2-methylpentanoic acid], for which the results for the EC50 in experiment [1] (setting [6]) and in experiment [1] (setting [7]) were 27.4 µM and 13 µM, respectively.
Taken in the same sequence, the figures for `CCC(CC)C(=O)O` [Compound 4, 2-ethylbutanoic acid] were 10.3 µM and 32.4 µM.
Taken in the same sequence, the figures for `CC(C)(C)CC(=O)O` [Compound 6, 3,3-dimethylbutanoic acid] were 0.48 µM and 0.91 µM.
Taken in the same sequence, the figures for `CC1(CC(=O)O)CC1` [Compound 7, 2-(1-methylcyclopropyl) acetic acid] were 10.2 µM and 28.8 µM.
Turning to `CC(C)(C)C(=O)O` [Compound 8, 2,2,dimethylpropionic acid], the “intracellular propionyl-CoA” value in experiment [5] was “dose-dependent reduction”.
Same read-out and setting: under `CCCC(C)(C)C(=O)O` [Compound 9, 2,2-dimethylpentanoic acid] stands “dose-dependent reduction”.
